This note sets out measurements from paper PMC11990898, “Novel Isatin–Chalcone Hybrid Molecules: Design, Synthesis and Anti-Neuroinflammatory Activity Evaluation” (Molecules, 2025).

Holding throughout (type): cell-based, mouse
For one data set, the system named is BV2 microglial cells. In words: Cell viability assay (MTS) on BV2 cells. The note with it: for IC50: Mus musculus, BV-2, MTS; for IC50 / cell viability: 24 h; for cell viability: compound at 25 μM, MTS; for cytotoxicity: under the concentration of 12.5 μM. On the procedure:
(§1) BV2 microglial cells (SCSP-5208, Cell Bank, Chinese Academy of Sciences, Shanghai, China) were incubated in high-glucose DMEM supplemented with 10% fetal bovine serum and 1% penicillin and streptomycin in a humidified atmosphere of 5% CO2 at 37 °C.
(§2) BV2 cells were plated in 96-well microplates at 20,000 cells per well (100 μL/well) and incubated for 24 h. Then, 100 μL of compounds (diluted with medium to a final concentration of 1.56–100 μM) was added, and each concentration had 3 parallel wells. After 24 h, the cell viability was measured by MTS assay. The absorbance was detected at 490 nm. The percentage of viability was obtained from the following formula: ODdrug-treated/ODnormal cells × 100. The IC50 values of test compounds were calculated by linear regression plots.

The test system of data set [1] is NO release from LPS-stimulated BV2 cells. Put plainly: NO release inhibition in LPS-stimulated BV2 cells (Griess method). The note with it: for Nitrite (NO release amount): BV2 cells induced by LPS, Griess test; for Nitrite (NO release amount) / inhibition at 20 µM: compound at 20 μM; for IC50 / inhibition at 20 µM: Mus musculus, BV-2, LPS-stimulated BV2 cells; for IC50: 24 h; for inhibition at 20 µM: read-out: NO inhibition rate. On the procedure:
BV2 cells stimulated by lipopolysaccharide (LPS) lead to an increase in NO release. Therefore, we used the inhibitory ability of the target compounds on NO as a preliminary method to evaluate their anti-neuroinflammatory properties. We evaluated the inhibitory ability of isatin–chalcone hybrid derivatives 4a–t on the release of NO from BV2 cells at 20 μM. The release amount of NO was detected by the Griess method, and the actual release amount of NO was calculated based on the experimental data.
BV2 cells were plated in 96-well microplates at 40,000 cells per well (100 μL/well) and incubated for 24 h. Then, 50 μL of LPS solution with a final concentration of 100 ng/mL and 50 μL of compounds (diluted with medium to a final concentration of 0.31–20 μM) were added, and each concentration had 3 parallel wells. The NO assay kit was used to carry out nitrite assays after 24 h. The 50 μL of culture medium was mixed with the GrisR1 (50 μL) and GrisR2 (50 μL) of the NO assay kit in another new 96-well plate. The absorbance was detected at 540 nm. The percentage of inhibition of NO was obtained from the following formula: [(Rlps − RB − RC)/(Rlps − RB)] × 100, where Rlps is the release amount of only the LPS-treated group, RB is the release amount of the normal control and RC is the release amount of the test compound and LPS-treated group. The IC50 values of test compounds were calculated by linear regression plots.
On the technique in general: Griess reagent forms a coloured azo dye with nitrite.

The next data set deals with TNF-α. Put plainly: ELISA of TNF-α released by LPS-stimulated BV2 cells. The note with it: for effect on production of TNF-α: result in words. On the procedure:
(§3) BV2 cells were plated in 96-well microplates at 40,000 cells per well (100 μL/well) and incubated for 24 h. Then, 50 μL of LPS solution with a final concentration of 100 ng/mL and 50 μL of compounds (diluted with medium to a final concentration of 0.75–40 μM) were added, and each concentration had 3 parallel wells. The supernatant was collected after 24 h. Then, according to the manufacturer’s instructions, the ELISA assay kit was used to measure the concentrations of IL-6 and TNF-α. The absorbance was detected at 450 nm.
(In general: ELISA stands for enzyme-linked immunosorbent assay.)

The next data set relates to IL-6. In words: ELISA of IL-6 released by LPS-stimulated BV2 cells. The note with it: for effect on production of IL-6: result in words. On the procedure:
as §3

The nature of data set [2]: Cell viability assay (MTS) on BV2 cells. The note with it: mouse, BV2 microglial cells, MTS; for viability at 24 h, 3.1 µM: compound at 3.1 μM; for viability at 24 h, 3.1 µM / viability at 24 h, 6.3 μM: read-out: cell viability (cell survival rate); for viability at 24 h, 6.3 μM: compound at 6.3 μM (printed 6.23 μM for 4b); for viability at 24 h, 12.5 µM: compound at 12.5 μM; for viability at 24 h, 25 µM: compound at 25 μM. On the procedure:
as §1, §2

A word on the IC50: it is the point on the concentration scale where inhibition reaches its midpoint. In general, inhibition refers to the drop in the measured response relative to a control, in per cent. As usually defined, the viability is a per cent measure of how many cells are alive, often set against a control.

The compound `CCOC(=O)CN1C(=O)/C(=C/C(=O)c2cc(OC)c(OC)c(OC)c2)c2ccccc21` [Compound 4j, Ethyl (E)-2-(2-oxo-3-(2-oxo-2-(3,4,5-trimethoxyphenyl)ethylidene)indolin-1-yl)acetate] showed an IC50 with BV2 microglial cells of 71.8 µM. Further, in data set [1], the “Nitrite (NO release amount)” value is 8.6 ± 0.1 µM, half-maximal inhibition (IC50) required 15.7 µM and the inhibition at 20 µM is 71%. For the same compound, the “effect on production of TNF-α” value with TNF-α was “relatively weaker inhibitory effects”. In addition, the “effect on production of IL-6” value in the data set with IL-6 is given as “relatively weaker inhibitory effects”.
As to `CCCCCCCOC(=O)CN1C(=O)/C(=C/C(=O)c2cc(OC)c(OC)c(OC)c2)c2ccccc21` [Compound 5b, Heptyl (E)-2-(2-oxo-3-(2-oxo-2-(3,4,5-trimethoxyphenyl)ethylidene)indolin-1-yl)acetate], the IC50 was determined as 45.3 µM with BV2 microglial cells and 15.8 µM in data set [1].
With `CCOC(=O)CN1C(=O)/C(=C/C(=O)c2ccc(C(C)C)cc2)c2ccccc21` [Compound 4f, Ethyl (E)-2-(3-(2-(4-isopropylphenyl)-2-oxoethylidene)-2-oxoindolin-1-yl)acetate], the cell viability result in the data set with BV2 microglial cells is “nearly non-cytotoxic”. Further, the “Nitrite (NO release amount)” value in data set [1] worked out at 17.1 ± 0.3 µM.
As for `COc1cc(C(=O)/C=C2/C(=O)N(CC(=O)OCCCc3ccccc3)c3ccccc32)cc(OC)c1OC` [Compound 5g, 3-Phenylpropyl (E)-2-(2-oxo-3-(2-oxo-2-(3,4,5-trimethoxyphenyl)ethylidene)indolin-1-yl)acetate], the IC50 with BV2 microglial cells is 48.5 µM; in data set [1], 6 µM. In the data set on TNF-α, the “effect on production of TNF-α” value is reported as “relatively weaker inhibitory effects”. In the data set on IL-6, the “effect on production of IL-6” value is given as “relatively weaker inhibitory effects”.
In the case of `CCOC(=O)CN1C(=O)/C(=C/C(=O)c2cc(OC)c(OC)c(OC)c2)c2cc(OC)ccc21` [Compound 9f, Ethyl (E)-2-(5-methoxy-2-oxo-3-(2-oxo-2-(3,4,5-trimethoxyphenyl)ethylidene)indolin-1-yl)acetate], 78.1 µM corresponded to half-maximal inhibition in the data set with BV2 microglial cells (IC50). In data set [1], the concentration for half-maximal inhibition (IC50) was determined as 10.4 µM and the inhibition at 20 µM is 68%.
Take `CCOC(=O)CN1C(=O)/C(=C/C(=O)c2ccc(-c3ccccc3)cc2)c2ccccc21` [Compound 4o, Ethyl (E)-2-(3-(2-([1,1′-biphenyl]-4-yl)-2-oxoethylidene)-2-oxoindolin-1-yl)acetate]: the cell viability result with BV2 microglial cells is recorded as “nearly non-cytotoxic”. Moreover, the “Nitrite (NO release amount)” value in data set [1] is 19.0 ± 0.4 µM.
On the same counts, the results for `CCOC(=O)CN1C(=O)/C(=C/C(=O)c2ccccn2)c2ccccc21` [Compound 4s, Ethyl (E)-2-(2-oxo-3-(2-oxo-2-(pyridin-2-yl)ethylidene)indolin-1-yl)acetate] are “nearly non-cytotoxic” and 11.1 ± 0.4 µM.
For `COc1cc(C(=O)/C=C2/C(=O)N(CC(=O)OCCc3ccccc3)c3ccccc32)cc(OC)c1OC` [Compound 5f, Phenethyl (E)-2-(2-oxo-3-(2-oxo-2-(3,4,5-trimethoxyphenyl)ethylidene)indolin-1-yl)acetate], the IC50 with BV2 microglial cells was 42.7 µM; in data set [1], 10.7 µM.
On the same counts, the results for `COC(=O)CN1C(=O)/C(=C/C(=O)c2cc(OC)c(OC)c(OC)c2)c2ccccc21` [Compound 5a, Methyl (E)-2-(2-oxo-3-(2-oxo-2-(3,4,5-trimethoxyphenyl)ethylidene)indolin-1-yl)acetate] are 78.6 µM and 10.9 µM.
With `CCOC(=O)CN1C(=O)/C(=C/C(=O)/C=C/c2ccccc2)c2ccccc21` [Compound 4b, Ethyl 2-((E)-2-oxo-3-((E)-2-oxo-4-phenylbut-3-en-1-ylidene)indolin-1-yl)acetate], in data set [2], the viability at 24 h, 3.1 µM came to 98.3%; the viability at 24 h, 6.3 μM was 89.9%; the viability at 24 h, 12.5 µM is 79.5%; the viability at 24 h, 25 µM is 48%. Also, in the data set on BV2 microglial cells, 34.6 µM corresponded to half-maximal inhibition (IC50) and the cytotoxicity entry is listed as “did not show obvious cytotoxicity”. Further, in data set [1], the “Nitrite (NO release amount)” value came out at 0.69 ± 0.01 µM, the IC50 was 1.6 µM and the inhibition at 20 µM was determined as 98%. For the same compound, the “reduction of TNF-α levels” value in the data set on TNF-α (compound at 1.5 μM, p < 0.0001) is 37%. In the data set with TNF-α, the “effect on production of TNF-α” value is “decreased significantly”. Also, the “reduction of IL-6 levels” value with IL-6 (compound at 1.5 μM, p < 0.0001) came out at 47%. Further, the “effect on production of IL-6” value with IL-6 is “decreased significantly”.
As for `CCCCCc1ccc(C(=O)/C=C2/C(=O)N(CC(=O)OCC)c3ccccc32)cc1` [Compound 4g, Ethyl (E)-2-(2-oxo-3-(2-oxo-2-(4-pentylphenyl)ethylidene)indolin-1-yl)acetate], in data set [2], the viability at 24 h, 3.1 µM is 98.4%; the viability at 24 h, 6.3 μM was determined as 95.1%; the viability at 24 h, 12.5 µM was 83.9%; the viability at 24 h, 25 µM was found to be 42%. Moreover, in the data set with BV2 microglial cells, the IC50 came to 30.1 µM and the cytotoxicity entry is “did not show obvious cytotoxicity”. Also, in data set [1], the “Nitrite (NO release amount)” value came to 8.5 ± 0.1 µM, the half-maximal inhibitory concentration (IC50) worked out at 10.8 µM and the inhibition at 20 µM turned out to be 73%.
With `CCOC(=O)CN1C(=O)/C(=C/C(=O)c2ccco2)c2ccccc21` [Compound 4q, Ethyl (E)-2-(3-(2-(furan-2-yl)-2-oxoethylidene)-2-oxoindolin-1-yl)acetate], in the data set with BV2 microglial cells, the cell viability result was “nearly non-cytotoxic”. For the same compound, in data set [1], the “Nitrite (NO release amount)” value was 20.2 ± 0.4 µM and the inhibition at 20 µM stood at 30%.
For `CCOC(=O)CN1C(=O)/C(=C/C(=O)c2cc(OC)c(OC)c(OC)c2)c2cc(C)ccc21` [Compound 9e, Ethyl (E)-2-(5-methyl-2-oxo-3-(2-oxo-2-(3,4,5-trimethoxyphenyl)ethylidene)indolin-1-yl)acetate], the IC50 in the data set with BV2 microglial cells was found to be 80.6 µM; in data set [1] it was 10.3 µM. In data set [1], the inhibition at 20 µM amounted to 72%. For the same compound, the “effect on production of TNF-α” value in the data set with TNF-α is reported as “relatively weaker inhibitory effects”. Besides, the “effect on production of IL-6” value in the data set with IL-6 is “relatively weaker inhibitory effects”.
For the compound `CCCCCCCCCCCOC(=O)CN1C(=O)/C(=C/C(=O)c2cc(OC)c(OC)c(OC)c2)c2ccccc21` [Compound 5c, Undecyl (E)-2-(2-oxo-3-(2-oxo-2-(3,4,5-trimethoxyphenyl)ethylidene)indolin-1-yl)acetate], the IC50 was found to be 19.8 µM in the data set with BV2 microglial cells and 6.3 µM in data set [1].
